Legend:
[1] = target: T1, Epoxide hydrolase 1/Bifunctional epoxide hydrolase 2 (Homo sapiens, UniProt P07099+P34913); assay: Drug metabolism in human liver microsomes assessed as microsomal/soluble epoxide hydrolase mediated formation of [+O + H2O] metabolites at 1 uM after 60 mins in absence of NADPH by LC-MS analysis; type: ADME; settings: 1 h
T1 sequence (P07099 whole entry): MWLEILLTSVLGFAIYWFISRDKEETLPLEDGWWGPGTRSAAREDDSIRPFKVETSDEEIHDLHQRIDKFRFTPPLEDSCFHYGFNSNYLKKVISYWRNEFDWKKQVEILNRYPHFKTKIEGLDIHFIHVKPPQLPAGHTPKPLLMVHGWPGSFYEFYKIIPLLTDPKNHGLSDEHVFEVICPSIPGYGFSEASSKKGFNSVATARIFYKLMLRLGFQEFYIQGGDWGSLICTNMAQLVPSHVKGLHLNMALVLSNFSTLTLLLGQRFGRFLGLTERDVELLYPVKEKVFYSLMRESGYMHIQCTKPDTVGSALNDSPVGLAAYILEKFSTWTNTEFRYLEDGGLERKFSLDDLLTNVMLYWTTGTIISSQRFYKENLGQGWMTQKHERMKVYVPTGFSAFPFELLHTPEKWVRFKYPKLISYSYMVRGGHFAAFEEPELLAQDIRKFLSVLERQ
T1 sequence (P34913 whole entry): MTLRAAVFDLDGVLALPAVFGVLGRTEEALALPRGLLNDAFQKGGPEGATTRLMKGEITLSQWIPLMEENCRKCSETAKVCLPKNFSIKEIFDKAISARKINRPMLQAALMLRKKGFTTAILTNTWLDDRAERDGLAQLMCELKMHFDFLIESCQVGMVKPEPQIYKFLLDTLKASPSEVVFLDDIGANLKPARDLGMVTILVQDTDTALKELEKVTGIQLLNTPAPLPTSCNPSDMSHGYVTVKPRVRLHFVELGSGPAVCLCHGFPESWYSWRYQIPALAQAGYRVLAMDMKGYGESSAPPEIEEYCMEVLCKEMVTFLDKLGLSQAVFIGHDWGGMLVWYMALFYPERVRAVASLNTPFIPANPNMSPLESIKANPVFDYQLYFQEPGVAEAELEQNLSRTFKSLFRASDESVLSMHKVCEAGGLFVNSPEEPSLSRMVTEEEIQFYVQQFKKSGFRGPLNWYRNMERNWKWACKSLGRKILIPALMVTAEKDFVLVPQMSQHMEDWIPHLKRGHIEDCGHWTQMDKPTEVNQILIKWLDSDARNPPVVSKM

[2] = Tmax in Sprague-Dawley (RjHan:SD) rat at 3 mg/kg, po administered via gavage by LC-MS analysis; type: ADME, organism-based; settings: in vivo
[3] = target: T2, Bifunctional epoxide hydrolase 2 (Homo sapiens) (UniProt P34913); assay: Inhibition of N-terminal His-tagged recombinant human soluble epoxide hydrolase (2 to 555 residues) expressed in Sf21 insect cells at 10 uM using as 14,15-EET as substrate after 10 mins by reversed-phase HPLC assay relative to control
T2 sequence (whole entry): T1 sequence (P34913 whole entry)

[4] = Stability in human plasma at 10 uM measured over 240 mins by LC-ESI-MS/MS analysis; type: ADME, cell-free; settings: 4 h
[5] = Negative chronotropic activity in Wistar rat neonatal cardiomyocytes assessed as decrease in basal beating rate after 7 mins by inverted microscopic method; type: functional, cell-based
[6] = Negative chronotropic activity in Wistar rat neonatal cardiomyocytes assessed as changes to basal beating rate after 7 mins by inverted microscopic method; type: functional
[7] = Intrinsic clearance in human hepatocytes assessed per million cells at 1 uM measured up to 180 mins by LC-ESI-MS/MS analysis; type: ADME, cell-based, Hepatocyte; settings: read-out: CLH
Cytochrome P450 3A4 = Cytochrome P450 3A4 (Homo sapiens, UniProt P08684); assay: Inhibition of recombinant human CYP3A4 expressed in supersomes using 7-benzyloxyquinoline as substrate by fluorescence method; type: ADME
Cytochrome P450 2J2 = target: T3, Cytochrome P450 2J2 (Homo sapiens, UniProt P51589); assay: Inhibition of recombinant human CYP2J2 expressed in baculovirus infected insect cells co-expressing NADPH-CYP reductase and cytochrome b5 assessed as reduction in CYP2J2-mediated EPA epoxidation by measuring sum of EEQ and DiHETEs level at 1 to 50 uM using EPA as substrate preincubated for 5 mins followed by NADPH addition and measured after 15 mins by LCMS/MS analysis; type: ADME; settings: recombinant enzyme, 0.25 h
T3 sequence (P51589 whole entry): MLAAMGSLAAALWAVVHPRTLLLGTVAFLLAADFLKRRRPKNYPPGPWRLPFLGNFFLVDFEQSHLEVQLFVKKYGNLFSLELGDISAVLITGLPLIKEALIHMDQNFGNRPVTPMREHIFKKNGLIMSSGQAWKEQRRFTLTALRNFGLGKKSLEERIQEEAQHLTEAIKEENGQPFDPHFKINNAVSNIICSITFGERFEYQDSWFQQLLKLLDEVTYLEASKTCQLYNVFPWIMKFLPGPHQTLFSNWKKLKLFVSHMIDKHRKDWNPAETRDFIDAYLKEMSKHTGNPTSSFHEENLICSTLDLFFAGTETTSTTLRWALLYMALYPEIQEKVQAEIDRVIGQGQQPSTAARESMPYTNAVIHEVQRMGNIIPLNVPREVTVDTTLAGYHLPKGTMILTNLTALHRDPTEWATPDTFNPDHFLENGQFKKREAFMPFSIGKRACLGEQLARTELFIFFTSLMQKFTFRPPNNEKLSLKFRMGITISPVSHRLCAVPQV

[8] = Oral bioavailability in Sprague-Dawley (RjHan:SD) rat at 3 mg/kg administered via gavage by LC-MS analysis; type: ADME, organism-based; settings: in vivo
[9] = Elimination half life in Sprague-Dawley (RjHan:SD) rat at 3 mg/kg, po administered via gavage by LC-MS analysis; type: ADME, organism-based; settings: in vivo, read-out: beta t1/2 (converted)
[10] = Negative chronotropic activity in Wistar rat neonatal cardiomyocytes assessed as change in basal beating rate after 7 mins by inverted microscopic method; type: functional

Cytochrome P450 3A4, sequence (P08684 whole entry): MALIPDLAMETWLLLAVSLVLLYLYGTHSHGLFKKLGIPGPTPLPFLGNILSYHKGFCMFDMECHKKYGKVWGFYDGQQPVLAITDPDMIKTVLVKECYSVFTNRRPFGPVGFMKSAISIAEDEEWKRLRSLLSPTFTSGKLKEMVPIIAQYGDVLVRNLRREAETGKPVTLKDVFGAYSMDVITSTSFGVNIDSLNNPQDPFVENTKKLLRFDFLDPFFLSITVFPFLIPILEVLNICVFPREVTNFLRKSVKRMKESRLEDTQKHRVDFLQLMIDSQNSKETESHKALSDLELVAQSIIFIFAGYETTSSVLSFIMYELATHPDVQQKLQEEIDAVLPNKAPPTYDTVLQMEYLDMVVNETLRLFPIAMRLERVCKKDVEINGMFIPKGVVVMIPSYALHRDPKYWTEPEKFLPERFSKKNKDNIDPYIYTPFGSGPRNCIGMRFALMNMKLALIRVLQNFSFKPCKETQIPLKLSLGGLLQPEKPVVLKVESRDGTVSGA

Row | SMILES | Drug metabolism [1] | Tmax [2] | inhibition [3] | Stability [4] | EC50 [5] | Emax [6] | hepatocyte CLint at 1 µM [7] | IC50 (Cytochrome P450 3A4) | inhibition (INH) (Cytochrome P450 2J2) | bioavailability [8] | half-life [9] | Activity [10]
1 | CNC(=O)C(=O)NCCCC/C=C\CCCCCCCCCC(=O)O | Metabolite_Notdetected | 1.6 h | -8.3% | Stable | 5.69 nM | 38.2 bpm | 16.5 µL/min/1e6 cells | > 50000 nM | Not Active |  |  | 
2 | CNC(=O)C(=O)NCCCC/C=C\CCCCCCCCCc1nnn[nH]1 | Metabolite_Notdetected | 2 h | 1.9% | Stable | 1.15 nM | 37.1 bpm | 4.77 µL/min/1e6 cells | 4700 nM | Active | 35% | 3.6 h | -30.9 bpm
3 | CNC(=O)C(=O)NCCCC/C=C\CCCCCCCOCC(=O)O | Metabolite_Notdetected | 1.6 h | 0.8% | Stable | 1.41 nM | 36.7 bpm | 2.48 µL/min/1e6 cells | > 50000 nM | Not Active | 100% | 9.6 h | -33.6 bpm
